Assay results published in patent US5624923A, “Tricyclic diazepine vasopressin antagonists and oxytocin antagonists” (priority 1995, dated 1997).
Like-named read-outs stand apart in the source and are kept apart here.

Experiments:
[1] = molecular target: T1, Rat Kidney Medullary V2 Receptors (Rattus norvegicus, UniProt Q00788); assay: Binding Assay to Rat Kidney Medullary V2 Receptors; conditions: for IC50: rat kidney medulla membranes, read-out: V2 IC50
T1 construct: Medullary tissues from rat kidneys are dissected out; from tissue; host or cells: rat kidney medulla membranes
Protocol: Binding Assay to Rat Kidney Medullary V2 Receptors
Medullary tissues from rat kidneys are dissected out, cut into small pieces and soaked in a […] sodium chloride solution containing 1.0 mM EDTA with many changes of the liquid phase, until the solution is clear of blood. The tissue is homogenized in a 0.25M sucrose solution containing 1.0 mM EDTA and 0.1 mM PMSF using a Potter-Elvehjem homogenizer with a teflon pestle. The homogenate is filtered through several layers (4 layers) of cheese cloth. The filtrate is rehomogenized using a dounce homogenizer, with a tight fitting pestle. The final homogenate is centrifuged at 1500× g for 15 min. The nuclear pellet is discarded and the supernatant fluid recentrifuged at 40,000× g for 30 min. The resulting pellet formed contains a dark inner part with the exterior., slightly pink. The pink outer part is suspended in a small amount of 50.0 mM Tris. HCl buffer, pH 7.4. The protein content is determined by the Lowry's method (Lowry et al., J. Biol. Chem., 1953). The membrane suspension is stored at -70° C. in 50.0 mM Tris HCl, containing 0.2% inactivated BSA and 0.1 mM PMSF in aliquots of 1.0 ml containing 10.0 mg protein per ml of suspension until use in subsequent binding experiments.
(§1) The plates are left undisturbed on the bench top for 120 min to reach equilibrium. Non-specific binding is assessed in the presence of 1.0 μM of unlabeled ligand, added in 20 μl volume. For test compounds, these are solubilized in 50% dimethylsulfoxide (DMSO) and added in 20.0 μl volume to a final incubation volume of 200 μl. Upon completion of binding, the content of each well is filtered off, using a Brandel® cell Harvester (Gaithersburg, Md.). The radioactivity trapped on the filter disk by the ligand-receptor complex is assessed by liquid scintillation counting in a Packard LS Counter, with an efficiency of 65% for tritium. The data are analyzed for IC50 values by the LUNDON-2 program for competition (LUNDON SOFTWARE, Ohio).

Vasopressin V1 = Vasopressin V1 Antagonist Activity in Conscious Rats (vasopressin vasopressor response); type: in vivo, rat; set-up: Average Change: unit not given here; conditions: SHR
Summary of the method: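 Conscious rats are restrained supine, and under local 2% procaine a PE 10/20 cannula is passed through the ventral caudal tail artery into the lower abdominal aorta. The caudal vein is cannulated for intravenous dosing. Blood pressure is recorded with a Statham P23Db transducer, and vasopressin injections are repeated after compound dosing. Percent antagonism is calculated against the pre-drug vasopressor response taken as 100%.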

Rat Hepatic V1 Receptors = molecular target: T2, Rat Hepatic V1 Receptors (Rattus norvegicus, UniProt P30560); assay: Binding Assay to Rat Hepatic V1 Receptors
T2 construct: Rat liver plasma membranes expressing the vasopressin V1 receptor subtypes; from tissue; host or cells: rat liver plasma membranes
Protocol: Binding Assay to Rat Hepatic V1 Receptors
Rat liver plasma membranes expressing the vasopressin V1 receptor subtypes are isolated by sucrose density gradient according to the method described by Lesko et al., (1973). These membranes are quickly suspended in 50.0 mM Tris.HCl buffer, pH 7.4, containing 0.2% bovine serum albumin (BSA) and 0.1 mM phenylmethylsulfonylfluoride (PMSF) and kept frozen at -70° C. until used in subsequent binding experiments. For binding experiments, the following is added to the wells of a ninety-six well format microtiter plate: 100 μl of 100.0 mM Tris.HCl buffer containing 10.0 mM MgCl2, 0.2% heat inactivated BSA and a mixture of protease inhibitors: leupeptin, 1.0 mg %; aprotinin, 1.0 mg %; 1,10-phenanthroiine,2.0 mg %; trypsin inhibitor, 10.0 mg % and 0.1 mM PMSF, 20.0 μl of [phenylalanyl-3,4,5, -^3 H] vasopressin (S.A. 45.1 Ci/mmole) at 0.8 nM, and the reaction initiated by the addition of 80 μl of tissue membranes containing 20 μg of tissue protein. The plates are kept undisturbed on the bench top at room temperature for 120 min. to reach equilibrium. Non-specific samples are assayed in the presence of 0.1 μM of the unlabeled antagonist phenylalanylvasopressin, added in 20.0 μl volume.
as §1, with “For” for “The plates are left undisturbed on the bench top for 120 min to reach equilibrium. Non-specific binding is assessed in the presence of 1.0 μM of unlabeled ligand, added in 20 μl volume. For”, “μl .” for “μl.”

[2] = 10 mg/kg i.v., VAS 0.01 i.u./kg, 30 min
[3] = 10 mg/kg i.v., VAS 0.02 i.u./kg, 30 min
[4] = 20 mg/kg i.v., VAS 0.01 i.u./kg, 60 min
[5] = 20 mg/kg i.v., VAS 0.01 i.u./kg, 90 min
[6] = 20 mg/kg i.v., VAS 0.01 i.u./kg, 120 min
[7] = 20 mg/kg i.v., VAS 0.01 i.u./kg, 180 min
[8] = 20 mg/kg i.v., VAS 0.01 i.u./kg, 240 min
[9] = 20 mg/kg i.v., VAS 0.01 i.u./kg, 300 min
[10] = 20 mg/kg i.v., VAS 0.02 i.u./kg, 60 min
[11] = 20 mg/kg i.v., VAS 0.02 i.u./kg, 90 min
[12] = 20 mg/kg i.v., VAS 0.02 i.u./kg, 120 min
[13] = 20 mg/kg i.v., VAS 0.02 i.u./kg, 180 min
[14] = 20 mg/kg i.v., VAS 0.02 i.u./kg, 240 min
[15] = 20 mg/kg i.v., VAS 0.02 i.u./kg, 300 min
[16] = 10 mg/kg i.v., VAS 0.01 i.u./kg, 60 min
[17] = 10 mg/kg i.v., VAS 0.01 i.u./kg, 90 min
[18] = 10 mg/kg i.v., VAS 0.01 i.u./kg, 120 min
[19] = 10 mg/kg i.v., VAS 0.01 i.u./kg, 180 min
[20] = 10 mg/kg i.v., VAS 0.01 i.u./kg, 240 min
[21] = 10 mg/kg i.v., VAS 0.01 i.u./kg, 300 min
[22] = 10 mg/kg i.v., VAS 0.02 i.u./kg, 60 min
[23] = 10 mg/kg i.v., VAS 0.02 i.u./kg, 90 min
[24] = 10 mg/kg i.v., VAS 0.02 i.u./kg, 120 min
[25] = 10 mg/kg i.v., VAS 0.02 i.u./kg, 180 min
[26] = 10 mg/kg i.v., VAS 0.02 i.u./kg, 240 min
[27] = 10 mg/kg i.v., VAS 0.02 i.u./kg, 300 min
[28] = rat liver membranes; read-out: V1 IC50

T2 sequence (P30560 whole entry): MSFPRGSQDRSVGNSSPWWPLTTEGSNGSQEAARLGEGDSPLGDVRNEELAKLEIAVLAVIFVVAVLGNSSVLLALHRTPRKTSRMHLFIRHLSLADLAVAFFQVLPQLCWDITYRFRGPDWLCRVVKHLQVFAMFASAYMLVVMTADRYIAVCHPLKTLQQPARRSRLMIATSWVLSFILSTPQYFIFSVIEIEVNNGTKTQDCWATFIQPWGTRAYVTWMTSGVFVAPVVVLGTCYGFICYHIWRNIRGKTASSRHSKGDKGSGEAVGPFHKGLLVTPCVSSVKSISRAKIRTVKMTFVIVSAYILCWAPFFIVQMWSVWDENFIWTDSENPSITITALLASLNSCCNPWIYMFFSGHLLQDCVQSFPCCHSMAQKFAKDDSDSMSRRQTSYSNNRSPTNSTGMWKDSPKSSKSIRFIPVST
T1 sequence (Q00788 whole entry): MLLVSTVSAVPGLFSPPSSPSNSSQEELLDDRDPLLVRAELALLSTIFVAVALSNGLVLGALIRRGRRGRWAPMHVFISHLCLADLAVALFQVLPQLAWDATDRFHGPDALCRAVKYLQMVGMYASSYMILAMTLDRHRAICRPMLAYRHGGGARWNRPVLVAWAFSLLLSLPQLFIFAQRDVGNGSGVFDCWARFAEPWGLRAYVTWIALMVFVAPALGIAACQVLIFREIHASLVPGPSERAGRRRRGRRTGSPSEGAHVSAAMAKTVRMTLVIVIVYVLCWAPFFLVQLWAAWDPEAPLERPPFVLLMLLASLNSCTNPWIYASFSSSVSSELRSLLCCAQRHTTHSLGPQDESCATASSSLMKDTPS

SMILES: Cc1c(CC(=O)Nc2ccc(C(=O)N3Cc4cccn4Cc4ccccc43)cc2)sc2ccccc12 [Example 87]
- inhibition at 10 µM ([1]; 10 μM, rat): 80%
- % Inhibition (Vasopressin V1; [2]): 20%
- Average Change (Vasopressin V1; [2]): 50
- % Inhibition (Vasopressin V1; [3]): 14%
- Average Change (Vasopressin V1; [3]): 57
- % Inhibition (Vasopressin V1; [4]): 77%
- Average Change (Vasopressin V1; [4]): 14.5
- % Inhibition (Vasopressin V1; [5]): 61%
- Average Change (Vasopressin V1; [5]): 24.5
- % Inhibition (Vasopressin V1; [6]): 58%
- Average Change (Vasopressin V1; [6]): 26
- % Inhibition (Vasopressin V1; [7]): 58%
- Average Change (Vasopressin V1; [7]): 26.5
- % Inhibition (Vasopressin V1; [8]): 54%
- Average Change (Vasopressin V1; [8]): 28.5
- % Inhibition (Vasopressin V1; [9]): 52%
- Average Change (Vasopressin V1; [9]): 30
- % Inhibition (Vasopressin V1; [10]): 51%
- Average Change (Vasopressin V1; [10]): 32.5
- % Inhibition (Vasopressin V1; [11]): 50%
- Average Change (Vasopressin V1; [11]): 33.5
- % Inhibition (Vasopressin V1; [12]): 47%
- Average Change (Vasopressin V1; [12]): 35.5
- % Inhibition (Vasopressin V1; [13]): 44%
- Average Change (Vasopressin V1; [13]): 37.5
- % Inhibition (Vasopressin V1; [14]): 38%
- Average Change (Vasopressin V1; [14]): 41
- % Inhibition (Vasopressin V1; [15]): 27%
- Average Change (Vasopressin V1; [15]): 48.5
- inhibition at 10 µM (Rat Hepatic V1 Receptors; 2 h; 10 μM, rat): 63%

SMILES: COc1cc(Cl)ccc1C(=O)Nc1ccc(C(=O)N2Cc3cccn3Cc3ccccc32)cc1 [Example 89, N-[4-(5H-Pyrrolo[2,1-c][1,4]benzodiazepin-10(11H)ylcarbonyl)phenyl]-4-chloro-2-methoxybenzamide]
- IC50 [1]: 8 nM
- % Inhibition (Vasopressin V1; [2]): 88%
- Average Change (Vasopressin V1; [2]): 5
- % Inhibition (Vasopressin V1; [16]): 81%
- Average Change (Vasopressin V1; [16]): 7.5
- % Inhibition (Vasopressin V1; [17]): 81%
- Average Change (Vasopressin V1; [17]): 7.5
- % Inhibition (Vasopressin V1; [18]): 63%
- Average Change (Vasopressin V1; [18]): 15
- % Inhibition (Vasopressin V1; [19]): 38%
- Average Change (Vasopressin V1; [19]): 25
- % Inhibition (Vasopressin V1; [20]): 38%
- Average Change (Vasopressin V1; [20]): 25
- % Inhibition (Vasopressin V1; [21]): 31%
- Average Change (Vasopressin V1; [21]): 27.5
- % Inhibition (Vasopressin V1; [3]): 92%
- Average Change (Vasopressin V1; [3]): 5
- % Inhibition (Vasopressin V1; [22]): 84%
- Average Change (Vasopressin V1; [22]): 10
- % Inhibition (Vasopressin V1; [23]): 80%
- Average Change (Vasopressin V1; [23]): 12.5
- % Inhibition (Vasopressin V1; [24]): 56%
- Average Change (Vasopressin V1; [24]): 27.5
- % Inhibition (Vasopressin V1; [25]): 48%
- Average Change (Vasopressin V1; [25]): 32.5
- % Inhibition (Vasopressin V1; [26]): 44%
- Average Change (Vasopressin V1; [26]): 35
- % Inhibition (Vasopressin V1; [27]): 48%
- Average Change (Vasopressin V1; [27]): 32.5
- IC50 (Rat Hepatic V1 Receptors; [28]): 23 nM

SMILES: O=C(Nc1ccc(C(=O)N2Cc3cccn3Cc3ccccc32)cc1)c1ccccc1C(F)(F)F [Example 91, N-[4-(5H-Pyrrolo[2,1-c][1,4]benzodiazepin-10(11H)-ylcarbonyl)phenyl]-2-(trifluoromethyl)benzamide]
- IC50 [1]: 22 nM
- % Inhibition (Vasopressin V1; [2]): 90%
- Average Change (Vasopressin V1; [2]): 5
- % Inhibition (Vasopressin V1; [16]): 87%
- Average Change (Vasopressin V1; [16]): 6.5
- % Inhibition (Vasopressin V1; [17]): 81%
- Average Change (Vasopressin V1; [17]): 9
- % Inhibition (Vasopressin V1; [18]): 73%
- Average Change (Vasopressin V1; [18]): 13
- % Inhibition (Vasopressin V1; [19]): 55%
- Average Change (Vasopressin V1; [19]): 22
- % Inhibition (Vasopressin V1; [20]): 59%
- Average Change (Vasopressin V1; [20]): 20
- % Inhibition (Vasopressin V1; [21]): 66%
- Average Change (Vasopressin V1; [21]): 16.5
- % Inhibition (Vasopressin V1; [3]): 88%
- Average Change (Vasopressin V1; [3]): 7.5
- % Inhibition (Vasopressin V1; [22]): 89%
- Average Change (Vasopressin V1; [22]): 7
- % Inhibition (Vasopressin V1; [23]): 80%
- Average Change (Vasopressin V1; [23]): 12.5
- % Inhibition (Vasopressin V1; [24]): 72%
- Average Change (Vasopressin V1; [24]): 17.5
- % Inhibition (Vasopressin V1; [25]): 54%
- Average Change (Vasopressin V1; [25]): 29
- % Inhibition (Vasopressin V1; [26]): 53%
- Average Change (Vasopressin V1; [26]): 29.5
- % Inhibition (Vasopressin V1; [27]): 48%
- Average Change (Vasopressin V1; [27]): 32.5
- IC50 (Rat Hepatic V1 Receptors; [28]): 26 nM

SMILES: Cc1ccccc1NC(=O)Nc1ccc(C(=O)N2Cc3cccn3Cc3ccccc32)cc1 [Example 116, 10,11-Dihydro-10-[4-[[[(2-methylphenyl]amino]-carbonl]amino]benzoyl]-5H-pyrrolo[2,1-c]-[1,4]benzodiazepine]
- IC50 [1]: 85 nM
- % Inhibition (Vasopressin V1; [2]): 22%
- Average Change (Vasopressin V1; [2]): 22.5
- % Inhibition (Vasopressin V1; [16]): 38%
- Average Change (Vasopressin V1; [16]): 18
- % Inhibition (Vasopressin V1; [17]): 34%
- Average Change (Vasopressin V1; [17]): 19
- % Inhibition (Vasopressin V1; [18]): 33%
- Average Change (Vasopressin V1; [18]): 19.5
- % Inhibition (Vasopressin V1; [19]): 38%
- Average Change (Vasopressin V1; [19]): 18
- % Inhibition (Vasopressin V1; [20]): 45%
- Average Change (Vasopressin V1; [20]): 16
- % Inhibition (Vasopressin V1; [21]): 24%
- Average Change (Vasopressin V1; [21]): 22
- % Inhibition (Vasopressin V1; [3]): 24%
- Average Change (Vasopressin V1; [3]): 36.5
- % Inhibition (Vasopressin V1; [22]): 30%
- Average Change (Vasopressin V1; [22]): 33.5
- % Inhibition (Vasopressin V1; [23]): 33%
- Average Change (Vasopressin V1; [23]): 32
- % Inhibition (Vasopressin V1; [24]): 17%
- Average Change (Vasopressin V1; [24]): 40
- % Inhibition (Vasopressin V1; [25]): 17%
- Average Change (Vasopressin V1; [25]): 40
- % Inhibition (Vasopressin V1; [26]): 20%
- Average Change (Vasopressin V1; [26]): 38.5
- % Inhibition (Vasopressin V1; [27]): 14%
- Average Change (Vasopressin V1; [27]): 41.5
- IC50 (Rat Hepatic V1 Receptors; read-out: V1 IC50; rat liver membranes): 280 nM
